The assay relates to STZ-induced hyperglycemic rats. Description: Effect on STZ-induced hyperglycemia in rats (blood glucose level). Format: in vivo, rat. As to the method:
Male Sprague-Dawley rats (S.D. 180 g) were used in the experiments described below. The animals lived in individual metabolism cages with free access to food and water, while food and body weight were monitored daily. Peripheral blood samples (approximately 10 μl) were obtained from the tail vein of the animals. The blood glucose levels were measured by using Accu-Check Blood Glucose Meter (Roche Diagnosetics Corporation, IN). Beta cell function was evaluated once every two days over a 2-week period by an individual unaware of the treatment group. Animals were evaluated separately for blood glucose level, food intake and body weight. The endpoint check was pancreatic insulin content and pancreatic beta cell number.
Streptozotocin (STZ) was used to chemically induce damage in pancreatic function in order to create a hyperglycemic state in the animals. Eight-week old male Sprague-Dawley rats (200.00 g±10 g) were injected with STZ by intraperitoneal (i.p.) (65 mg/kg body weight (BW)) to create hyperglycemic animals (24 to 48 hours). Blood glucose levels were monitored daily. Onset of hyperglycemia occurred usually about 24 to 48 hours after STZ administration.
[…] the seventh day or on the third day after STZ administration, which allowed for examination of the TRH/TRH analog treatment and the degree of pancreatic damage in the diabetic animal. Again, food intake, body weight and blood glucose levels of each of the animals were monitored. When hyperglycemia was determined to be reversed by TRH/TRH analog, the animal was sacrificed. Blood samples were collected for insulin assay and the pancreas and muscles were collected for further pathological and physiological tests.
The figures shown in the tables are blood glucose levels (mg/dL; i.e., milligrams of glucose per deciliter of blood).

These results are taken from patent US20080249028A1, “Thyrotropin-Releasing Hormone Analogs and Method of Use” (Roger Williams Hospital, priority 2005, published 2008).

Where a SMILES comes first, the peptide text is derived from it. [ ]: non-standard residue; d: D form. pGlu = O=C1CC[CH](C(=O)O)N1

With `NC(=O)C1CCCN1C(=O)C(Cc1ccccc1)NC(=O)C1CCC(=O)N1` (stereo not drawn) [PheT, 1-{3-phenyl-2-[(5-oxo-pyrrolidine-2-carbonyl)-amino]-propionyl}-pyrrolidine-2-carboxylic acid amide] ([pGlu]-Phe-Pro-NH2; configuration not given here), the blood glucose level (Table 1, rats, STZ + compound i.p., Day 1) is on record as 105.8 mg/dL; the blood glucose level (Table 1, rats, STZ + compound i.p., Day 2) amounted to 316.8 mg/dL; the blood glucose level (Table 1, rats, STZ + compound i.p., Day 4) came out at 419.8 mg/dL; the blood glucose level (Table 1, rats, STZ + compound i.p., Day 9) was 130.8 mg/dL; the blood glucose level (Table 1, rats, STZ + compound i.p., Day 15) came to 234.4 mg/dL; the blood glucose level (Table 1, rats, STZ + compound i.p., Day 22) was found to be 359.2 mg/dL. Also, the blood glucose level runs as follows: (Table 1, rats, STZ + compound i.p., Day 29) 407.2 mg/dL; (Table 1, rats, STZ + compound i.p., Day 39) 434.8 mg/dL; (Table 1, rats, STZ + compound i.p., Day 43) 432 mg/dL; (Table 1, rats, STZ + compound i.p., Day 50) 478 mg/dL; (Table 1, rats, STZ + compound i.p., Day 53) 424 mg/dL; (Table 1, rats, STZ + compound i.p., Day 56) 355 mg/dL. The blood glucose level is 381 mg/dL (Table 1, rats, STZ + compound i.p., Day 60) and 414 mg/dL (Table 1, rats, STZ + compound i.p., Day 64).
Take `CN(N=O)C(=O)N[C@@H]1[C@@H](O)[C@H](O)[C@@H](CO)O[C@@H]1O` [S, streptozotocin, reference compound]: the blood glucose level turned out to be 99.8 mg/dL (Table 1, rats, STZ alone, Day 1); 313.2 mg/dL (Table 1, rats, STZ alone, Day 2); 433.6 mg/dL (Table 1, rats, STZ alone, Day 4); 320 mg/dL (Table 1, rats, STZ alone, Day 9); 393.8 mg/dL (Table 1, rats, STZ alone, Day 15); 463.8 mg/dL (Table 1, rats, STZ alone, Day 22). Moreover, the blood glucose level was 522.4 mg/dL (Table 1, rats, STZ alone, Day 29); 537.2 mg/dL (Table 1, rats, STZ alone, Day 39); 466.8 mg/dL (Table 1, rats, STZ alone, Day 43); 485 mg/dL (Table 1, rats, STZ alone, Day 50); 460 mg/dL (Table 1, rats, STZ alone, Day 53); 453 mg/dL (Table 1, rats, STZ alone, Day 56). For the same compound, the blood glucose level is given as 542 mg/dL (Table 1, rats, STZ alone, Day 60); 482 mg/dL (Table 1, rats, STZ alone, Day 64); 98 mg/dL (Table 2, rats, STZ alone, Day 1); 103 mg/dL (Table 2, rats, STZ alone, Day 4); 506 mg/dL (Table 2, rats, STZ alone, Day 7); 494 mg/dL (Table 2, rats, STZ alone, Day 11). In addition, the blood glucose level came to 329 mg/dL (Table 2, rats, STZ alone, Day 15); 432 mg/dL (Table 2, rats, STZ alone, Day 18); 453 mg/dL (Table 2, rats, STZ alone, Day 21); 480 mg/dL (Table 2, rats, STZ alone, Day 25); 499 mg/dL (Table 2, rats, STZ alone, Day 28); 529 mg/dL (Table 2, rats, STZ alone, Day 32). The same compound yielded a blood glucose level (Table 2, rats, STZ alone, Day 35) of 499 mg/dL; a blood glucose level (Table 2, rats, STZ alone, Day 39) of 508 mg/dL; a blood glucose level (Table 2, rats, STZ alone, Day 42) of 549 mg/dL; a blood glucose level (Table 2, rats, STZ alone, Day 46) of 536 mg/dL; a blood glucose level (Table 2, rats, STZ alone, Day 54) of 500 mg/dL; a blood glucose level (Table 2, rats, STZ alone, Day 61) of 582 mg/dL. Under “rats, STZ 65 mg/kg BW i.p.”, the “onset of hyperglycemia after STZ administration” value was 24 to 48 h.
